Experimental findings from ChEMBL document CHEMBL1154077, “Carbonic anhydrase inhibitors. Inhibition studies of a coral secretory isoform by sulfonamides” (Bioorg Med Chem, 2009) are described below.

Each structure is given as a SMILES string. pKi: −log10 of the molar value.

The assay has as its target T1, Alpha carbonic anhydrase (Stylophora pistillata, UniProt B5SU02).
T1 sequence (B5SU02 whole entry): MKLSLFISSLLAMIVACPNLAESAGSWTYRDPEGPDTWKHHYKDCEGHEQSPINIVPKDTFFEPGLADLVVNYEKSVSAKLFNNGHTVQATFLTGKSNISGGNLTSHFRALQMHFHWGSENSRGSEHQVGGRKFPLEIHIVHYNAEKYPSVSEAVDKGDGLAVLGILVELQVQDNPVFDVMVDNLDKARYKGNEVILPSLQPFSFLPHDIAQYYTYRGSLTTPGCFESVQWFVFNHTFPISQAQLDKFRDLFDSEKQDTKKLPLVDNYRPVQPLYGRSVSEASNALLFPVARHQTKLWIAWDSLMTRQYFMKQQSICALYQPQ
Description: Inhibition of cloned Stylophora pistillata alpha-CA expressed in human HEK293 cells by stopped-flow CO2 assay
By pKi is commonly meant the negative decadic logarithm of the Ki, by convention in mol/L. `NNc1ccccc1S(N)(=O)=O` showed a pKi of 5.60. `Nc1nnc(S(N)(=O)=O)s1` had a negative-log Ki (pKi) of 6.98. Under `Nc1ccc(S(=O)(=O)NCc2ccc(S(N)(=O)=O)cc2)cc1` stands 7.53. As to `Nc1cc(Cl)c(S(N)(=O)=O)cc1S(N)(=O)=O`, the pKi was 6.53.

In turn, `Nc1ccc(S(N)(=O)=O)cc1I` had a pKi of 7.05. Regarding `Nc1ccc(S(=O)(=O)Nc2nnc(S(N)(=O)=O)s2)cc1`, the pKi was 7.56. This pKi is 0.51 log units higher than that of the compound before. Compound `Nc1nccc(Nc2ccc(S(N)(=O)=O)cc2)n1` had a pKi of 7.60. Then `Nc1ccc(S(N)(=O)=O)cc1Br`, with 6.98; and `Cn1nc(S(N)(=O)=O)sc1=N`, with 7.04. Turning to `NS(=O)(=O)c1ccc(CCO)cc1`, the pKi was 6.11. Compared with the last compound, the pKi is 0.93 log units lower. The compound `Nc1ccc(S(N)(=O)=O)cc1F` showed a pKi of 7.12. For `NS(=O)(=O)c1ccc(CO)cc1`, the pKi is 6.11. Compound `NCCc1ccc(S(N)(=O)=O)cc1` gave a pKi of 7.03. For the compound `Nc1ccc(S(N)(=O)=O)cc1Cl`, the pKi was 7.06. `Nc1ccc(S(=O)(=O)NCCc2ccc(S(N)(=O)=O)cc2)cc1`: the negative-log Ki (pKi) is 7.71. On to `NS(=O)(=O)c1ccc(S(=O)(=O)Nc2cccc3c(Cl)c[nH]c23)cc1`, for which the pKi was 6.79. As for `Nc1cc(C(F)(F)F)c(S(N)(=O)=O)cc1S(N)(=O)=O` [2,4-DISULFAMYLTRIFLUOROMETHYLANILINE], the pKi was 6.44. Under `NS(=O)(=O)c1nnc(NS(=O)(=O)c2ccccc2)s1` [BENZOLAMIDE] stands 7.69; under `CCN[C@H]1CN(CCCOC)S(=O)(=O)c2sc(S(N)(=O)=O)cc21` [BRINZOLAMIDE], 7.32. The compound `NS(=O)(=O)c1ccc(C(=O)O)cc1` [CARZENIDE] had a pKi of 6.36. Compound `Cc1ccc(-c2cc(C(F)(F)F)nn2-c2ccc(S(N)(=O)=O)cc2)cc1` [CELECOXIB] had a pKi of 7.47. Against the preceding compound, the pKi is 1.11 log units higher. In the case of `NCc1ccc(S(N)(=O)=O)cc1` [MAFENIDE], the pKi was 7.08.

As to `Cc1ccc(S(N)(=O)=O)cc1` [P-TOLUENESULFONAMIDE], the pKi is 6.21. Compared with the last compound, the pKi is 0.87 log units lower.

Turning to `O=C1NS(=O)(=O)c2ccccc21` [SACCHARIN], the pKi was 7.39. Under `Nc1ccc(S(N)(=O)=O)cc1` [SULFANILAMIDE] stands 6.44.

The compound `CC1(C)O[C@@H]2[C@@H](CO[C@@]3(COS(N)(=O)=O)OC(C)(C)O[C@@H]23)O1` [TOPIRAMATE] gave a pKi of 7.54. Compared with the last compound, the pKi is 1.10 log units higher.
